Values of other authors, collected in patent US8288437B2, “Salts, aqueous liquid compositions containing salts of abscisic acid analogs and methods of their preparation” (Valent BioSciences Corporation, priority 2008, dated 2012).

Conditions: pure water at room temperature

SMILES: CC1=CC(=O)CC(C)(C)[C@@]1(O)/C=C/C(C)=C\C(=O)O [(S)-(+)-abscisic acid, 2-cis-,4-trans-(S)-(+)-abscisic acid]
- highest concentration that can be achieved in pure water: ≤ 3000 ppm
